Data on 13 compounds can be found in patent EP0117429A1, “Phosphorous containing compounds as inhibitors of enkephalinases” (SCHERING CORPORATION, priority 1983, dated 1984).

Where a name gives a salt, the structure may show the parent alone.

For one experiment, the target named is T1, enkephalinase A (Rattus norvegicus, UniProt P07861).
T1 construct: from tissue; host or cells: rat brain (minus cerebellum), Triton X-100 solubilised membranes, DEAE Sephacel fraction
T1 sequence (P07861 1-750): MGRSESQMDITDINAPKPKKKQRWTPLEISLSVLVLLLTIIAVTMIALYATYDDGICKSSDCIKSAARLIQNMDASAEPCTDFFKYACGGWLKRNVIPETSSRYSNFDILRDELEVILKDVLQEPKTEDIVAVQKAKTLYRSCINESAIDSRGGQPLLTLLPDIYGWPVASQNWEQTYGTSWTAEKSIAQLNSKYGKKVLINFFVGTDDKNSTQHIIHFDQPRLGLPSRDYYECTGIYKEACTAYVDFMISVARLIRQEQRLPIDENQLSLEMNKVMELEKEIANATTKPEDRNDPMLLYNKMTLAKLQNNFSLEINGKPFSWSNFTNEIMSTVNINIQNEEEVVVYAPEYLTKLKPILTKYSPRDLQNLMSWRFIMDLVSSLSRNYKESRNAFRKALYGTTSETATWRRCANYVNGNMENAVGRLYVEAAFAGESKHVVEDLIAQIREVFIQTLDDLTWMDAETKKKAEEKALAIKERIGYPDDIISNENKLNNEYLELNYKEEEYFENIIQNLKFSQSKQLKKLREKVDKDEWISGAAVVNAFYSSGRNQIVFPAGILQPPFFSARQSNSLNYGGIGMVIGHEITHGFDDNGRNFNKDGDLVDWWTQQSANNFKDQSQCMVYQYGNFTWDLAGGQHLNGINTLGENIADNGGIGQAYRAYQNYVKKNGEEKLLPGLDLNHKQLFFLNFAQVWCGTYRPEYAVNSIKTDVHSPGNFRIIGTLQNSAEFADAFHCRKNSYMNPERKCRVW
Kind of experiment: Enkephalinase A inhibition, radiometric assay with 3H-Met5-ENK substrate and TLC separation. In kind it is biochemical, Sprague-Dawley rats. As to conditions: enkephalinase A fraction from rat brain membranes; substrate 3H-Met5-ENK 40 nM; 90 minutes at 37°C; pH 7.4. Here is the method: Enzyme activity was separated by taking the brain tissue (minus cerebellum) from Sprague-Dawley rats and homogenizing it in 30 volumes of 50 mM Tris buffer, pH 7.4, using a Brinkmann Polytron. The resulting homogenate is centrifuged at 50,000 x g for 15 minutes. The pellet, constituting the membrane bound enzyme material, was washed by resuspending it in Tris and re- centrifuging it 4 times.
Following washing, solubilization of the membrane pellet was achieved by incubating it for 45 minutes at 37 °C in the presence of 15 volumes (based on initial brain weight) of 50 mM Tris-l% Triton X-100 buffer, pH 7.4. After centrifugation at 100,000 x g for 60 minutes to remove non-solubilized material, the Triton soluble supernatant was layered on a 1.5 x 30 cm DEAE Sephacel column previously equilibrated with.50 mM Tris-0.1% Triton, pH 7.4. Material was eluted from the column using a 1 liter linear NaCl gradient running from 0.0 to 0.4 M. Effluent was collected in 7 ml fractions, each of which was assayed for enkephalin degrading activity.
Enkephalin degrading activity was monitored using a radiometric assay. The substrate was ^3H-Met5-ENK (50.1 Ci/mmol, New England Nuclear) diluted in 0.05 M Tris buffer, pH 7.4, such that the final reaction mixture concentration was 40 nM. Total reaction mixture volume including enzyme and substrate was 250 µl. Incubation was carried out for 90 minutes at 37°C. To stop the reaction, tubes were transferred to a boiling water bath for 15 minutes.
Assay products were separated form one another using thin layer chromatography. […] Total running time was approximately 17 hours. TLC tanks are gassed with nitrogen prior to starting the run. Following the run, markers are visualized with ninhydrin spray. These spots, along with remaining plate regions, are cut from the plate and the radioactivity corresponding to each monitored using liquid scintillation counting. IC50's are determined using linear regression techniques.

In another experiment the test system is Male CF1 mice. Kind of experiment: Potentiation of the analgesic effects of DAEAM, mouse tailflick test. In kind it is in vivo. The note with it: dose at which half the test animals displayed analgesia, DAEAM icv, tailflick latency 30 minutes after DAEAM, cut-off 10 seconds. Here is the method: The following test procedure was utilized to assess the noted compounds' potentiation of the analgesic effects of (D-Ala^2-Met^5)-enkephalinamide (DAEAM).
Male CF1 mice (19-23 g) from Charles River Breeding Labs, Mass., were used (N=10/dose or dose combination). […] Tailflick latencies were re-determined 30 minutes later, as this has previously been determined to be the time of peak analgesia for DAEAM, and a cut-off of 10 seconds is employed.

Compound `O=C(O)CCNC(=O)[C@H](Cc1ccc(Cl)cc1)CP(=O)(O)O` [S, -Cl, -CONH-, -(CH2)2-, -OH, N-[3-(a-chloro)phenyl-1-oxo-2-(phosphonomethyl)propyl]-B-alanine] yielded a half-maximal inhibitory concentration (IC50) on enkephalinase A of 11 nM. The “Oral ED50, in mice” value in the experiment with Male CF1 mice came out at 25 mg/kg.
In turn, `CC(OC(=O)NC(Cc1ccccc1)CP(=O)(O)O)C(=O)O` [R,S, -H, -NHCOO-, -C^**H(CH3)-, -OH, 2-[2-phenyl-l-(phosphonomethyl)ethyl]aminocarbonyloxy-propanoic acid] had a half-inhibitory concentration (IC50) against enkephalinase A of 100 nM. In other words, the sub-micromolar range.
Same read-out and setting: in the case of `CCOC(=O)c1ccc(NC(=O)C(Cc2ccccc2)CP(=O)(O)O)cc1` (centres unmarked) [S, -H, -CONH-, p-C6H4-, -OC2H5, 4-[1-oxo-3-phenyl-2-(phosphonomethyl)propyl]aminobenzoic acid ethyl ester] it was 63 nM; in that of `O=C(O)CCNC(=O)C(Cc1ccc(-c2ccccc2)cc1)CP(=O)(O)O` (racemic) [R,S, -C6H5, -CONH-, -(CH2)2-, -OH, N-[(R,S)-3-(1,1'-Biphenyl-4-yl)-1-oxo-2-(phosphonomethyl)-propyl]-β-alanine], 1.3 nM.
In turn, “3-[(S) -2- (Diethoxyphosphinyl) methyl -1-oxo-3 -nhenyl- propyl]amino-2-(R,S)-methylpropanoic acid calcium salt [S, -H, -CONH-, -CH2C^**H(CH3)-, -OH]” came in with an IC50 against enkephalinase A of 25.5 nM. For the same compound, the “Oral ED50, in mice” value in the experiment with Male CF1 mice was 20 mg/kg.
For `O=C(O)CCNC(=O)C(Cc1ccc(C(F)(F)F)cc1)CP(=O)(O)O` (racemic) [R,S, -CF3, -CONH-, -(CH2)2-, -OH, N-[1-Oxo-2-phosphonomethyl-3-(4-trifluoromethyl)phenylpropyl]-β-alanine], the concentration for half-maximal inhibition (IC50) against enkephalinase A is 60 nM.
The same measure, in the same setting: in the case of `O=C(O)CCNC(=O)[C@@H](Cc1ccccc1)CP(=O)(O)O` [R, -H, -CONH-, -(CH2)2-, -OH, N-[(R)-1-oxo-3-phenyl-2-)phosphonomethyl)propyl] -(β-alanine calcium salt] it was 600 nM.
The compound `CCOC(=O)CCNC(=O)[C@H](Cc1ccccc1)CP(=O)(O)O` [S, -H, -CONH-, -(CH2)2-, -OC2H5, N-[(S)=1-Oxo-3-phenyl-2-(phostphonomethyl)propyl] -β-alanine ethyl ester calcium salt] came in with an IC50 against enkephalinase A of 60 nM. Also, the “Oral ED50, in mice” value in the experiment on Male CF1 mice came out at 2.5 mg/kg.
The compound `O=C(CCNC(=O)[C@H](Cc1ccccc1)CP(=O)(O)O)OCCOc1ccccc1` [S, -H, -CONH-, -(CH2)2-, -O(CH2)2OC6H5, N-[(S)-1-Oxo-3-phenyl-2-(phosphonomethyl)propyl)-β-alanine 2-phenoxyethyl ester] displayed a 50% inhibitory concentration (IC50) against enkephalinase A of 210 nM.
On the same count and under the same terms, the same measure for `O=C(O)C(O)CNC(=O)C(Cc1ccccc1)CP(=O)(O)O` (centres unmarked) [S, -H, -CONH-, -CH2C^***H(OH)-, -OH, 3-[1-Oxo-3-phenyl-2-(phosphonomethyl)propyl]amino-2-hydroxypropanoic Acid]: 25 nM.
As for “N-L(S)-1-Oxo-3-phenyl-2-(phosphonomethyl)propyl]-β-alanine calcium salt [S, -H, -CONH-, -(CH2)2-, -OH]”, on enkephalinase A, the IC50 came out at 19 nM. In addition, the “Oral ED50, in mice” value in the experiment on Male CF1 mice was determined as 3 mg/kg.
Compound `O=C(O)CCCNC(=O)C(Cc1ccccc1)CP(=O)(O)O` (centres unmarked) [S, -H, -CONH-, -(CH2)3-, -OH, 4-[1-oxo-3-phenyl-2-(phosphonomethyl)propyl]amino-butanoic acid] came in with a 50% inhibitory concentration (IC50) against enkephalinase A of 80 nM.
The same measure, in the same setting: the same measure for `CCOC(=O)CCNC(=O)C(Cc1ccc(C(F)(F)F)cc1)CP(=O)(O)O` (racemic) [R,S, -CF3, -CONH-, -(CH2)2-, -OC2H5]: 2200 nM.

As usually defined, the IC50 is the concentration that gives 50% inhibition.
